These results are taken from patent US9115127B2 (AMGEN INC., priority 2010, dated 2015).

The target of this assay is T1, wild-type human ALK (cytoplasmic domain, amino acids 1058-1620, N-terminal GST fusion) (Homo sapiens, UniProt Q9UM73).
T1 construct: The cytoplasmic domain (amino acids 1058-1620) of wild-type human ALK; GST (N); made in house; host or cells: SF9 insect cells
T1 sequence (Q9UM73 1058-1620): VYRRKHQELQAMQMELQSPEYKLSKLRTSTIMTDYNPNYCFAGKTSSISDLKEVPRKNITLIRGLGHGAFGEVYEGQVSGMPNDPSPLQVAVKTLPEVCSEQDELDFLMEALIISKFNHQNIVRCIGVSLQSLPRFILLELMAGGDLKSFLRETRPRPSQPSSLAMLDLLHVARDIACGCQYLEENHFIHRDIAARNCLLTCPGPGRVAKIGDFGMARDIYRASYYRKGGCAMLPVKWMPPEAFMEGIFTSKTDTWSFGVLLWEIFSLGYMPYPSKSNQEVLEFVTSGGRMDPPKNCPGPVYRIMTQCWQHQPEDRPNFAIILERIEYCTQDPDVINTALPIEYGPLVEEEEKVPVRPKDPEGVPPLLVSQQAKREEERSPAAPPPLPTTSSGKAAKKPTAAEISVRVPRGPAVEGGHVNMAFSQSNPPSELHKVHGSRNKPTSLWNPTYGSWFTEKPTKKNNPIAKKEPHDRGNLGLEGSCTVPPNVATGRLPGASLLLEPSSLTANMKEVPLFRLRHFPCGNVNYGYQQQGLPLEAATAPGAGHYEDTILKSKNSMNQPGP
Kind of assay: ALK Inhibition in Enzyme Assay (Lance TR-FRET kinase assay). In kind it is biochemical. The gist of the method: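 TR-FRET read-out (Eu-W1024 PT66 anti-phosphotyrosine plus streptavidin-allophycocyanin, 320 nm excitation) quantified biotinylated peptide phosphorylation by the purified kinase. Reaction ran 90 minutes at room temperature before quenching with 20 mM EDTA in Tris pH 7.5 buffer with NaCl, BSA and Tween-20.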
In the case of `CC(C)NC(=O)[C@H]1CC[C@@H](n2/c(=N/C(=O)c3ccc(F)cc3)[nH]c3cnc(OCCN4CCCCC4)cc32)CC1` [Example 45, (E)-4-Fluoro-N-(1-(cis-4-(isopropylcarbamoyl)cyclohexyl)-6-(2-(piperidin-1-yl)ethoxy)-1H-imidazo[4,5-c]pyridin-2(3H)-ylidene)benzamide], the 50% inhibitory concentration (IC50) was < 0.05 µM.
`CN(CC(=O)N1CCC(n2/c(=N/C(=O)c3ccccc3)[nH]c3cnc(OCCN4CCCCC4)cc32)CC1)C(=O)OC(C)(C)C` [Example 76, (E)-tert-Butyl 2-(4-(2-(benzoylimino)-6-(2-(piperidin-1-yl)ethoxy)-2,3-dihydro-1H-imidazo[4,5-c]pyridin-1-yl)piperidin-1-yl)-2-oxoethyl(methyl)carbamate] had a 50% inhibitory concentration (IC50) of 1 to 5 µM.
For `C[C@H]1CN(C(=O)[C@H]2CC[C@@H](n3/c(=N/C(=O)c4ccc(F)cc4)[nH]c4cnc(OCCN5CCCCC5)cc43)CC2)CCN1C(=O)OC(C)(C)C` [Example 60, (S)-tert-Butyl 4-(cis-4-((E)-2-(4-fluorobenzoylimino)-6-(2-(piperidin-1-yl)ethoxy)-2,3-dihydro-1H-imidazo[4,5-c]pyridin-1-yl)cyclohexanecarbonyl)-2-methylpiperazine-1-carboxylate], the half-maximal inhibitory concentration (IC50) was 1 to 5 µM.
The same measure for `C=CCNS(=O)(=O)c1cccc(C(=O)/N=c2\[nH]c3ccc(CN4CCC(C(C)(C)O)CC4)cc3n2[C@H]2CC[C@@H](C(N)=O)CC2)c1` [Example 232, (E)-3-(N-Allylsulfamoyl)-N-(1-(cis-4-carbamoylcyclohexyl)-6-((4-(2-hydroxypropan-2-yl)piperidin-1-yl)methyl)-1H-benzo[d]imidazol-2(3H)-ylidene)benzamide]: < 0.05 µM; for `CC(C)NC(=O)[C@H]1CC[C@@H](n2/c(=N/C(=O)c3ccc(F)c(C(F)(F)F)c3)[nH]c3cnc(OCCN4CCCCC4)cc32)CC1` [Example 114, (E)-4-Fluoro-N-(1-(cis-4-(isopropylcarbamoyl)cyclohexyl)-6-(2-(piperidin-1-yl)ethoxy)-1H-imidazo[4,5-c]pyridin-2(3H)-ylidene)-3-(trifluoromethyl)benzamide]: 0.05 to 0.1 µM.
The same measure for `C=CCNS(=O)(=O)c1cccc(C(=O)/N=c2\[nH]c3cnc(OCCN4CCCCC4)cc3n2[C@H]2CC[C@H](C(=O)NC(C)C)CC2)c1` [Example 131, (E)-3-(N-Allylsulfamoyl)-N-(1-(trans-4-(isopropylcarbamoyl)cyclohexyl)-6-(2-(piperidin-1-yl)ethoxy)-1H-imidazo[4,5-c]pyridin-2(3H)-ylidene)benzamide]: 0.1 to 1 µM; for `COCCCNS(=O)(=O)c1cc(C(=O)Nc2nc3ccc(CO)cc3n2[C@H]2CC[C@@H](C(=O)OC)CC2)ccc1F` [Example 28, cis-Methyl 4-(2-(4-fluoro-3-(N-(3-methoxypropyl)sulfamoyl)benzamido)-6-(hydroxymethyl)-1H-benzo[d]imidazol-1-yl)cyclohexanecarboxylate]: 0.1 to 1 µM.
Turning to `CC(C)NC(=O)[C@H]1CC[C@@H](n2/c(=N/C(=O)c3ccc(F)cc3)[nH]c3cnc(NCCN4CCOCC4)cc32)CC1` [Example 163, (E)-4-Fluoro-N-(1-(cis-4-(isopropylcarbamoyl)cyclohexyl)-6-(2-morpholinoethylamino)-1H-imidazo[4,5-c]pyridin-2(3H)-ylidene)benzamide], the IC50 is < 0.05 µM.
The same measure for `C[C@@H]1CNCCN1C(=O)[C@H]1CC[C@@H](n2/c(=N/C(=O)c3ccc(F)cc3)[nH]c3cnc(OCCN4CCCCC4)cc32)CC1` [Example 59, (E)-4-Fluoro-N-(1-(cis-4-((R)-2-methylpiperazine-1-carbonyl)cyclohexyl)-6-(2-(piperidin-1-yl)ethoxy)-1H-imidazo[4,5-c]pyridin-2(3H)-ylidene)benzamide]: < 0.05 µM; for `CC(C)NC(=O)[C@H]1CC[C@@H](n2/c(=N/C(=O)c3ccc(F)cc3)[nH]c3cnc(O)cc32)CC1` [Example 162, (E)-4-Fluoro-N-(6-hydroxy-1-(cis-4-(isopropylcarbamoyl)cyclohexyl)-1H-imidazo[4,5-c]pyridin-2(3H)-ylidene)benzamide]: < 0.05 µM; for `CNCC(=O)N1CCC(n2/c(=N/C(=O)c3ccccc3)[nH]c3cnc(OCCN4CCCCC4)cc32)CC1` [Example 75, (E)-N-(1-(1-(2-(Methylamino)acetyl)piperidin-4-yl)-6-(2-(piperidin-1-yl)ethoxy)-1H-imidazo[4,5-c]pyridin-2(3H)-ylidene)benzamide]: 0.1 to 1 µM.
With `O=C(/N=c1\[nH]c2ccc(CN3CCOCC3)cc2n1[C@H]1CC[C@@H](C(=O)NCCO)CC1)c1ccc(F)cc1` [Example 201, (E)-4-Fluoro-N-(1-(cis-4-(2-hydroxyethylcarbamoyl)cyclohexyl)-6-(morpholinomethyl)-1H-benzo[d]imidazol-2(3H)-ylidene)benzamide], the IC50 is < 0.05 µM.
For the compound `COC(=O)[C@H]1CC[C@@H](n2/c(=N/C(=O)c3ccc(F)cc3)[nH]c3cnc(OCCN4CCCCC4)cc32)CC1` [Example 44, cis-Methyl 4-((E)-2-(4-fluorobenzoylimino)-6-(2-(piperidin-1-yl)ethoxy)-2,3-dihydro-1H-imidazo[4,5-c]pyridin-1-yl)cyclohexanecarboxylate], the half-maximal inhibitory concentration (IC50) was < 0.05 µM.
`CC(C)NC(=O)[C@H]1CC[C@@H](n2/c(=N/C(=O)c3ccc(F)c(Cl)c3)[nH]c3cnc(OCCN4CCCCC4)cc32)CC1` [Example 101, (E)-3-Chloro-4-fluoro-N-(1-(cis-4-(isopropylcarbamoyl)cyclohexyl)-6-(2-(piperidin-1-yl)ethoxy)-1H-imidazo[4,5-c]pyridin-2(3H)-ylidene)benzamide]: the IC50 is < 0.05 µM.
Turning to `CC(C)NC(=O)[C@H]1CC[C@@H](n2/c(=N/C(=O)c3ccc(F)cc3)[nH]c3ccc(N4CCOCC4)cc32)CC1` [Example 218, (E)-4-Fluoro-N-(1-(cis-4-(isopropylcarbamoyl)cyclohexyl)-6-morpholino-1H-benzo[d]imidazol-2(3H)-ylidene)benzamide], the IC50 was < 0.05 µM.
For the compound `C=CCNS(=O)(=O)c1cc(C(=O)Nc2nc3ccc(CN4CCCCC4)cc3n2[C@H]2CC[C@@H](C(=O)OC)CC2)ccc1F` [Example 33, cis-Methyl 4-(2-(3-(N-allylsulfamoyl)-4-fluorobenzamido)-6-(piperidin-1-ylmethyl)-1H-benzo[d]imidazol-1-yl)cyclohexanecarboxylate], the 50% inhibitory concentration (IC50) was < 0.05 µM.
For `O=C(/N=c1\[nH]c2ccc(CN3CCOCC3)cc2n1[C@H]1CC[C@@H](C(=O)N2CCNCC2)CC1)c1ccc(F)cc1` [Example 204, (E)-4-Fluoro-N-(6-(morpholinomethyl)-1-(cis-4-(piperazine-1-carbonyl)cyclohexyl)-1H-benzo[d]imidazol-2(3H)-ylidene)benzamide] the value was < 0.05 µM.
Take `C=CCNS(=O)(=O)c1cccc(C(=O)/N=c2\[nH]c3ccc(CN4CCC(C(C)(C)O)CC4)cc3n2[C@H]2CC[C@H](C(N)=O)CC2)c1` [Example 235, (E)-3-(N-Allylsulfamoyl)-N-(1-(trans-4-carbamoylcyclohexyl)-6-((4-(2-hydroxypropan-2-yl)piperidin-1-yl)methyl)-1H-benzo[d]imidazol-2(3H)-ylidene)benzamide]: the IC50 is < 0.05 µM.

One may read the IC50 as the concentration needed to halve the response being measured.
